Data: the supplement of paper PMC10307832

How the values were obtained:
Test in all cases: relative viability (nuclei count vs DMSO), 5 days (fraction); higher = more cells survive
TPCA-1 + Crizotinib = compound: C1=CC(=CC=C1C2=CC(=C(S2)NC(=O)N)C(=O)N)F [TPCA-1] + C[C@@H](Oc1cc(-c2cnn(C3CCNCC3)c2)cnc1N)c1c(Cl)ccc(F)c1Cl [Crizotinib] (partner 1 µM)
Outline: (§1)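 Lung cancer cell lines were seeded in 1536-well plates and dosed by pin tool the next day, with either a single drug or a fixed anchor-drug dose combined with five library-drug doses (not always all listed) spaced in √10 steps. Five days later, one step fixed the cells and stained their nuclei (final 0.05% Triton X-100, 1% formaldehyde, 1 ug/ml Hoechst), and nuclei were counted on 4× images. Relative viability is the nuclei count in treated wells divided by the count in vehicle wells, and each value is the median of duplicate plates.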

[1] = compound: C[C@]12O[C@H](C[C@]1(O)CO)n1c3ccccc3c3c4c(c5c6ccccc6n2c5c31)CNC4=O [Lestaurtinib] + CCNC(=O)c1noc(-c2cc(C(C)C)c(O)cc2O)c1-c1ccc(CN2CCOCC2)cc1 [Luminespib] (partner 0.01 µM)
Outline: as §1

[2] = compound: C[C@]12O[C@H](C[C@]1(O)CO)n1c3ccccc3c3c4c(c5c6ccccc6n2c5c31)CNC4=O [Lestaurtinib] + C[C@@H](Oc1cc(-c2cnn(C3CCNCC3)c2)cnc1N)c1c(Cl)ccc(F)c1Cl [Crizotinib] (partner 1 µM)
Outline: as §1

[3] = compound: C[C@]12O[C@H](C[C@]1(O)CO)n1c3ccccc3c3c4c(c5c6ccccc6n2c5c31)CNC4=O [Lestaurtinib] + Nc1nc2[nH]cc(CCc3ccc(C(=O)N[C@@H](CCC(=O)O)C(=O)O)cc3)c2c(=O)[nH]1 [Pemetrexed] (partner 0.2 µM)
Outline: as §1

Cell Line	relative viability (TPCA-1 + Crizotinib; first compound 0.04 µM)	relative viability (TPCA-1 + Crizotinib; first compound 0.1265 µM)	relative viability (TPCA-1 + Crizotinib; first compound 0.4 µM)	relative viability (TPCA-1 + Crizotinib; first compound 1.265 µM)	relative viability (TPCA-1 + Crizotinib; first compound 4 µM)	relative viability ([1]; first compound 0.005 µM)	relative viability ([1]; first compound 0.01581 µM)	relative viability ([1]; first compound 0.05 µM)	relative viability ([1]; first compound 0.1581 µM)	relative viability ([1]; first compound 0.5 µM)	relative viability ([2]; first compound 0.005 µM)	relative viability ([2]; first compound 0.01581 µM)	relative viability ([2]; first compound 0.05 µM)	relative viability ([2]; first compound 0.1581 µM)	relative viability ([2]; first compound 0.5 µM)	relative viability ([3]; first compound 0.005 µM)	relative viability ([3]; first compound 0.01581 µM)	relative viability ([3]; first compound 0.05 µM)	relative viability ([3]; first compound 0.1581 µM)	relative viability ([3]; first compound 0.5 µM)
LXF-289	0.84	0.785	0.794	0.806	0.537	0.833	0.746	0.421	0.33	0.293	0.791	0.815	0.568	0.798	0.183	0.872	0.931	0.631	0.771	0.21
NCI-H23	0.582	0.503	0.515	0.441	0.341	0.241	0.217	0.242	0.184	0.188	0.466	0.495	0.401	0.546	0.233	0.622	0.787	0.503	0.449	0.292
NCI-H322M	0.807	0.924	0.873	0.841	0.728	0.773	0.713	0.449	0.337	0.329	0.931	0.919	0.495	0.482	0.41	0.599	0.606		0.592	0.445
NCI-H358	0.759	0.559	0.541	0.39	0.264	0.446	0.325	0.378	0.149	0.121	0.61	0.297	0.402	0.31	0.0912	0.177	0.164	0.174	0.136	0.158
NCI-H441	0.894	0.646	0.618	0.452	0.379	0.375	0.277	0.329	0.399	0.409	0.912	0.654	0.395	0.505	0.308	0.272	0.258	0.238	0.277	0.285
NCI-H460	0.911	0.919	0.889	0.883	0.298	0.0333	0.0274	0.0352	0.0238	0.0199	1.16	0.905	0.448	0.676	0.516	0.0559	0.0645	0.0633	0.0509	0.0531
NCI-H520	0.882	0.737	0.795	0.566	0.544	0.226	0.202	0.234	0.217	0.244	0.653	0.687	0.332	0.42	0.344	0.772	0.678	0.593	0.369	0.318
NCI-H596	1.01	1.1	0.522	0.972	1.01	0.959	1.12	1.03	1.27	0.953	0.851	1.05	0.805	1.02	0.923	0.487	0.488	0.504	0.476	0.453
NCI-H647	1.24	1.08	1.13	0.882	0.215	0.153	0.115	0.12	0.0972	0.0647	0.93	1.12	0.624	0.225	0.141	0.187	0.162	0.183	0.119	0.064
NCI-H650	0.707	0.522	0.688	0.373	0.382	0.824	0.703	0.635	0.322	0.239	0.744	0.764	0.509	0.414	0.226	0.938	1.01	0.557	0.573	0.33
NCI-H661	0.968	0.889	1.05	0.988	0.825	0.895	0.88	0.853	0.729	0.363	1.01	0.84	0.97	0.927	0.676	0.972	1.03	0.836	0.702	0.523
NCI-H838	0.837	0.752	0.806	0.698	0.471	0.321	0.321	0.284	0.227	0.197	0.78	0.803	0.71	0.465	0.158	0.263	0.272	0.231	0.197	0.126
NCI-H1355	1.1	1.03	1.11	0.977	0.712	0.646	0.625	0.455	0.493	0.261	1.29	1.09	1.01	0.86	0.549	1.1	1.08	0.928	0.754	0.607
NCI-H1437	0.941	0.892	0.892	0.872	0.834	1.21	1.26	1.06	1.16	0.962	0.863	0.897	0.906	0.887	0.674	0.274	0.305	0.293	0.23	0.238
NCI-H1563	0.945	0.954	0.89	0.953	0.811	0.554	0.495	0.546	0.5	0.48	0.913	0.921	0.837	0.907	0.794	0.71	0.855	0.613	0.797	0.723
NCI-H1650	1.18	0.92	1.04	1.09	0.891	0.183	0.195	0.188	0.164	0.18	0.901	1.13	0.841	1.29	0.308	0.472	0.367	0.383	0.319	0.322
NCI-H1651	0.853	0.841	0.892	0.812	0.747	0.866	0.938	0.897	0.806	0.461	0.897	0.997	0.837	0.858	0.551	0.534	0.722	0.571	0.615	0.388
NCI-H1666	0.894	0.971	0.977	0.918	0.993	1.05	1.14	1.46	0.959	0.609	1.04	1.38	1.39	0.96	0.409	0.988	0.92	0.948	0.95	0.707
NCI-H1734	0.706	0.584	0.704	0.642	0.575	0.2	0.0895	0.185	0.159	0.155	0.741	0.649	0.538	0.424	0.205	0.439	0.392	0.402	0.397	0.178
NCI-H1755	0.83	0.772	0.922	0.831	0.48	0.41	0.42	0.453	0.211	0.204	0.865	0.645	0.724	0.438	0.268	0.478	0.463	0.41	0.36	0.353
NCI-H1792	1.01	0.952	1.02	0.928	0.584		0.618	0.332	0.464	0.158	0.901	1.18	0.49	0.799	0.476	0.748	1.15	0.257	0.371	0.31
NCI-H1915	0.906	0.884	0.915	0.857	0.72	0.766	0.893	0.471	0.663	0.259	0.914	1.1	0.816	0.848	0.357	0.589	0.432	0.458	0.447	0.205
NCI-H1944	1.18	1.03	1.02	1.02	0.682	0.716	0.784	0.773	0.54	0.302	1.13	1.28	0.745	0.695	0.362	0.663	0.595	0.492	0.409	0.25
NCI-H1975	0.985	0.863	0.972	0.939	0.691	0.538	0.171	0.199	0.137	0.159	0.943	0.988	0.707	0.867	0.586	0.298	0.295	0.292	0.281	0.218
NCI-H1993	0.868		1.02	0.851	0.849	0.692	0.442	0.831	0.523	0.569	0.936	0.971	0.819	0.635	0.548	0.581	0.657	0.644	0.411	0.497
NCI-H2009	1.06	1.05	1.03	1.05	0.891	1.13	1.08	0.993	0.858	0.637	1.02	1.09	1	0.637	0.454	1.07	1.06	0.998	0.934	0.835
